Each compound was assayed against Human immunodeficiency virus type 1 protease (Human immunodeficiency virus 1, UniProt Q72874) (assay: Inhibitory concentration required to inhibit hydrolytic activity of recombinant HIV-1 PR (human immunodeficiency virus protease)).

Row | Compound | IC50 [µM]
1 | [N-]=[N+]=NC1C(N)C(OCc2ccccc2)OC(CO)C1OCc1ccccc1 (stereo not drawn) | > 1
2 | NC1C(OCc2ccccc2)OC(CO)C(OCc2ccccc2)C1N (stereo not drawn) | 205
3 | NC1C(OCc2ccccc2)OC(COC(=O)Nc2ccccc2)C(OCc2ccccc2)C1N (stereo not drawn) | 28

Source: ChEMBL document CHEMBL1131680, “Structure-based design of diaminopyranosides as a novel inhibitor core unit of HIV proteases” (Bioorg Med Chem Lett, 1999)
